Measurements taken from ChEMBL document CHEMBL1201862, “PubChem BioAssay data set” (2004).
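How tested: cells in 96-well plates exposed to compound for 48 hours at five concentrations. GI50 marks 50% less growth.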 The source made the active and inactive calls. No stated cut-off is given here; in the data, active = GI50 up to about 1.1 µM and inactive = higher.

What was measured:
Assay in all cases: DTP human tumour cell line panel, 48 h
[1] = tested on: TK-10
[2] = tested on: IGROV-1
[3] = tested on: PC-3
[4] = tested on: A498
[5] = tested on: 786-0
[6] = tested on: RXF 393
[7] = tested on: MDA-MB-435
[8] = tested on: M14
[9] = tested on: OVCAR-3
[10] = tested on: KM12
[11] = tested on: ACHN
[12] = tested on: NCI-H226
[13] = tested on: UACC-257
[14] = tested on: UACC-62
[15] = tested on: HCT-116
[16] = tested on: CCRF-CEM
[17] = tested on: SF-268
[18] = tested on: SNB-75
[19] = tested on: COLO 205
[20] = tested on: NCI/ADR-RES

Measured: GI50

CC(NC1=NCCO1)c1cccc([N+](=O)[O-])c1 (stereo not given)
inactive: [1] > 100 µM | [2] > 100 µM | [3] > 100 µM | [4] > 100 µM | [5] > 100 µM | [6] > 100 µM | [7] > 100 µM | [8] > 100 µM | [9] > 100 µM | [10] > 100 µM | [11] > 100 µM | [12] > 100 µM | [13] > 100 µM | [14] > 100 µM | [15] > 100 µM | [16] > 100 µM | [17] > 100 µM | [18] > 100 µM | [19] > 100 µM | [20] > 100 µM

CC1CCCc2c(C#N)c(N)nc(-c3ccc(Cl)cc3)c21 (stereo not given)
inactive: [1] 29.8 µM | [2] 14.4 µM | [3] 4.68 µM | [4] 68.4 µM | [5] 15.1 µM | [6] 6.87 µM | [7] 23.8 µM | [8] 19.2 µM | [9] 12.6 µM | [10] 17.9 µM | [11] 17.6 µM | [12] 14.5 µM | [13] 25.4 µM | [14] 15.8 µM | [15] 20.7 µM | [16] 22.8 µM | [17] 31.1 µM | [18] 22.4 µM | [19] 18.8 µM | [20] 20.6 µM

COc1ccc(C2C3COc4ccccc4C3=NN2c2ccccc2)cc1 (stereo not given)
inactive: [1] > 100 µM | [2] > 100 µM | [3] 57.7 µM | [4] > 100 µM | [5] > 100 µM | [6] > 100 µM | [7] 62.4 µM | [8] > 100 µM | [9] > 100 µM | [10] > 100 µM | [11] > 100 µM | [12] > 100 µM | [13] > 100 µM | [14] > 100 µM | [15] > 100 µM | [16] > 100 µM | [17] > 100 µM | [18] > 100 µM | [19] > 100 µM | [20] > 100 µM
